According to patent publication US20230017045A1, “PYRIDINE AND PYRIMIDINE CARBOXYLATE HERBICIDES AND METHODS OF USE THEREOF” (Dow AgroSciences LLC, priority 2017, published 2023):
Read-outs that look alike come from different tables or passages of the source.

Columns and labels:
test plant species = assay: Post-emergent herbicidal activity test (greenhouse, foliar spray, visual growth reduction); format: in vivo; settings: post-emergence, 336 h, 140 g ai/ha
In short: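 Visual percent injury (0-100) rated 14 d after treatment, relative to nontreated and solvent-blank plants. Test plants at first or second true leaf stage received an overhead track-sprayer application at 187 L/ha. Compounds were formulated in aqueous acetone/DMSO carrier containing crop oil concentrate and X-77 surfactant.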

[1] = ALOMY: blackgrass (Alopecurus myosuroides), 14 days after application, read-out: Visual Growth Reduction (%) 14 Days After Application, ALOMY
[2] = AMARE: redroot pigweed (Amaranthus retroflexus), 14 days after application, read-out: Visual Growth Reduction (%) 14 Days After Application, AMARE
[3] = AVEFA: wild oat (Avena fatua), 14 days after application, read-out: Visual Growth Reduction (%) 14 Days After Application, AVEFA
[4] = CHEAL: lambsquarters (Chenopodium album), 14 days after application, read-out: Visual Growth Reduction (%) 14 Days After Application, CHEAL
[5] = CIRAR: canada thistle (Cirsium arvense), 14 days after application, read-out: Visual Growth Reduction (%) 14 Days After Application, CIRAR
[6] = CYPES: yellow nutsedge (Cyperus esculentus), 14 days after application, read-out: Visual Growth Reduction (%) 14 Days After Application, CYPES
[7] = DIGSA: crabgrass (Digitaria sanguinalis), 14 days after application, read-out: Visual Growth Reduction (%) 14 Days After Application, DIGSA
[8] = ECHCG: barnyardgrass (Echinochloa crus-galli), 14 days after application, read-out: Visual Growth Reduction (%) 14 Days After Application, ECHCG
[9] = IPOHE: ivy-leaf morning glory (Ipomoea hederacea), 14 days after application, read-out: Visual Growth Reduction (%) 14 Days After Application, IPOHE
[10] = KCHSC: kochia (Bassia scoparia), 14 days after application, read-out: Visual Growth Reduction (%) 14 Days After Application, KCHSC
[11] = ORYSA: rice (Oryza sativa), 14 days after application, read-out: Visual Growth Reduction (%) 14 Days After Application, ORYSA
[12] = SETFA: giant foxtail (Setaria faberi), 14 days after application, read-out: Visual Growth Reduction (%) 14 Days After Application, SETFA
[13] = SORVU: grain sorghum (Sorghum vulgare), 14 days after application, read-out: Visual Growth Reduction (%) 14 Days After Application, SORVU
[14] = STEME: common chickweed (Stellaria media), 14 days after application, read-out: Visual Growth Reduction (%) 14 Days After Application, STEME
[15] = TRZAS: wheat, spring (Triticum aestivum), 14 days after application, read-out: Visual Growth Reduction (%) 14 Days After Application, TRZAS
[16] = blackgrass (Alopecurus myosuroides), 14 Days After Application, read-out: Visual Growth Reduction (%) ALOMY
[17] = canada thistle (Cirsium arvense), 14 Days After Application, read-out: Visual Growth Reduction (%) CIRAR
[18] = crabgrass (Digitaria sanguinalis), 14 Days After Application, read-out: Visual Growth Reduction (%) DIGSA
[19] = lambsquarters (Chenopodium album), 14 Days After Application, read-out: Visual Growth Reduction (%) CHEAL
[20] = redroot pigweed (Amaranthus retroflexus), 14 Days After Application, read-out: Visual Growth Reduction (%) AMARE
[21] = wild oat (Avena fatua), 14 Days After Application, read-out: Visual Growth Reduction (%) AVEFA
[22] = yellow nutsedge (Cyperus esculentus), 14 Days After Application, read-out: Visual Growth Reduction (%) CYPES

Molecule `COC(=O)c1nc(-c2ccc(C(F)(F)F)cc2Cl)c(Cl)cc1Cl` [F103, Methyl 3,5-dichloro-6-(2-chloro-4-(trifluoromethyl)phenyl)picolinate] has a melting point of 85 to 86 °C, a pest or weed control at 140 g/ha (test plant species; [1]) of 0 to 29% and a pest or weed control at 140 g/ha (test plant species; [2]) of 60 to 74%. For the same molecule, the pest or weed control at 140 g/ha (test plant species; [3]) was 0 to 29%, the pest or weed control at 140 g/ha (test plant species; [4]) was 75 to 84% and the pest or weed control at 140 g/ha (test plant species; [5]) was 85 to 94%. The pest or weed control at 140 g/ha (test plant species; [6]) was 0 to 29%, the pest or weed control at 140 g/ha (test plant species; [7]) was 30 to 44% and the pest or weed control at 140 g/ha (test plant species; [8]) was 0 to 29%. For the same molecule, the pest or weed control at 140 g/ha (test plant species; [9]) was 95 to 100%, the pest or weed control at 140 g/ha (test plant species; [10]) was 75 to 84% and the pest or weed control at 140 g/ha (test plant species; [11]) was 0 to 29%. The pest or weed control at 140 g/ha (test plant species; [12]) was 60 to 74%, the pest or weed control at 140 g/ha (test plant species; [13]) was 75 to 84% and the pest or weed control at 140 g/ha (test plant species; [14]) was 0 to 29%. For the same molecule, the pest or weed control at 140 g/ha (test plant species; [15]) was 0 to 29%.

With `COC(=O)c1nc(-c2ccc(C(F)(F)F)cc2Cl)cc(F)c1Cl` [F109, methyl 3-chloro-6-(2-chloro-4-(trifluoromethyl)phenyl)-4-fluoropicolinate] the melting point was 127 to 128 °C, the pest or weed control at 140 g/ha (test plant species; [1]) was 0 to 29% and the pest or weed control at 140 g/ha (test plant species; [2]) was 0 to 29%. It also gave a pest or weed control at 140 g/ha (test plant species; [3]) of 0 to 29%, a pest or weed control at 140 g/ha (test plant species; [4]) of 0 to 29% and a pest or weed control at 140 g/ha (test plant species; [5]) of 0 to 29%. The pest or weed control at 140 g/ha (test plant species; [6]) was 0 to 29%, the pest or weed control at 140 g/ha (test plant species; [7]) was 0 to 29% and the pest or weed control at 140 g/ha (test plant species; [8]) was 0 to 29%. The pest or weed control at 140 g/ha (test plant species; [9]) was 0 to 29%, the pest or weed control at 140 g/ha (test plant species; [10]) was 0 to 29% and the pest or weed control at 140 g/ha (test plant species; [11]) was 0 to 29%. It also gave a pest or weed control at 140 g/ha (test plant species; [12]) of 0 to 29%, a pest or weed control at 140 g/ha (test plant species; [13]) of 0 to 29% and a pest or weed control at 140 g/ha (test plant species; [15]) of 0 to 29%.

`COC(=O)c1nc(-c2ccc(C(F)(F)F)nc2F)c(F)cc1Cl` [F354, methyl 5-chloro-2′,3-difluoro-6′-(trifluoromethyl)-[2,3′-bipyridine]-6-carboxylate] showed a melting point of 84 to 86 °C, a pest or weed control at 140 g/ha (test plant species; [8]) of 75 to 84% and a pest or weed control at 140 g/ha (test plant species; [9]) of 95 to 100%. The pest or weed control at 140 g/ha (test plant species; [10]) was 60 to 74%, the pest or weed control at 140 g/ha (test plant species; [11]) was 0 to 29% and the pest or weed control at 140 g/ha (test plant species; [12]) was 75 to 84%. The pest or weed control at 140 g/ha (test plant species; [13]) was 85 to 94%, the pest or weed control at 140 g/ha (test plant species; [14]) was 0 to 29% and the pest or weed control at 140 g/ha (test plant species; [15]) was 60 to 74%. For the same molecule, the pest or weed control at 140 g/ha (test plant species; [16]) was 0 to 29%, the pest or weed control at 140 g/ha (test plant species; [17]) was 75 to 84% and the pest or weed control at 140 g/ha (test plant species; [18]) was 85 to 94%. For the same molecule, the pest or weed control at 140 g/ha (test plant species; [19]) was 75 to 84%, the pest or weed control at 140 g/ha (test plant species; [20]) was 60 to 74% and the pest or weed control at 140 g/ha (test plant species; [21]) was 30 to 44%. The pest or weed control at 140 g/ha (test plant species; [22]) was 0 to 29%.

Molecule `COc1ncc(Cl)cc1-c1ccc(Cl)c(C(=O)O)n1` [F134, 5,5′-Dichloro-2′-methoxy-[2,3′-bipyridine]-6-carboxylic acid] has a melting point of 155.2 to 163.3 °C, a pest or weed control at 140 g/ha (test plant species; [1]) of 0 to 29% and a pest or weed control at 140 g/ha (test plant species; [2]) of 0 to 29%. For the same molecule, the pest or weed control at 140 g/ha (test plant species; [3]) was 0 to 29%, the pest or weed control at 140 g/ha (test plant species; [4]) was 0 to 29% and the pest or weed control at 140 g/ha (test plant species; [5]) was 0 to 29%. It also gave a pest or weed control at 140 g/ha (test plant species; [6]) of 0 to 29%, a pest or weed control at 140 g/ha (test plant species; [7]) of 0 to 29% and a pest or weed control at 140 g/ha (test plant species; [8]) of 0 to 29%. For the same molecule, the pest or weed control at 140 g/ha (test plant species; [9]) was 0 to 29%, the pest or weed control at 140 g/ha (test plant species; [10]) was 0 to 29% and the pest or weed control at 140 g/ha (test plant species; [11]) was 0 to 29%. The pest or weed control at 140 g/ha (test plant species; [12]) was 0 to 29%, the pest or weed control at 140 g/ha (test plant species; [13]) was 0 to 29% and the pest or weed control at 140 g/ha (test plant species; [14]) was 0 to 29%. For the same molecule, the pest or weed control at 140 g/ha (test plant species; [15]) was 0 to 29%.

With `COC(=O)c1nc(-c2ccc(C(F)(F)F)cc2Cl)c(F)c(OC)c1Cl` [F42, methyl 3-chloro-6-(2-chloro-4-(trifluoromethyl)phenyl)-5-fluoro-4-methoxypicolinate] the melting point was 65 to 67 °C, the pest or weed control at 140 g/ha (test plant species; [1]) was 0 to 29% and the pest or weed control at 140 g/ha (test plant species; [2]) was 30 to 44%. The pest or weed control at 140 g/ha (test plant species; [3]) was 0 to 29%, the pest or weed control at 140 g/ha (test plant species; [4]) was 85 to 94% and the pest or weed control at 140 g/ha (test plant species; [5]) was 60 to 74%. For the same molecule, the pest or weed control at 140 g/ha (test plant species; [6]) was 0 to 29%, the pest or weed control at 140 g/ha (test plant species; [7]) was 0 to 29% and the pest or weed control at 140 g/ha (test plant species; [8]) was 0 to 29%. It also gave a pest or weed control at 140 g/ha (test plant species; [9]) of 85 to 94%, a pest or weed control at 140 g/ha (test plant species; [10]) of 45 to 59% and a pest or weed control at 140 g/ha (test plant species; [11]) of 0 to 29%. The pest or weed control at 140 g/ha (test plant species; [12]) was 0 to 29%, the pest or weed control at 140 g/ha (test plant species; [13]) was 75 to 84% and the pest or weed control at 140 g/ha (test plant species; [14]) was 0 to 29%. For the same molecule, the pest or weed control at 140 g/ha (test plant species; [15]) was 0 to 29%.

Molecule `COC(=O)c1nc(-c2ccc(S(C)(=O)=O)cc2F)c(F)cc1Cl` [F379, Methyl 3-chloro-5-fluoro-6-(2-fluoro-4-(methylsulfonyl)phenyl)picolinate] has a melting point of 179 to 181 °C, a pest or weed control at 140 g/ha (test plant species; [8]) of 75 to 84% and a pest or weed control at 140 g/ha (test plant species; [9]) of 95 to 100%. For the same molecule, the pest or weed control at 140 g/ha (test plant species; [10]) was 85 to 94%, the pest or weed control at 140 g/ha (test plant species; [11]) was 0 to 29% and the pest or weed control at 140 g/ha (test plant species; [12]) was 75 to 84%. It also gave a pest or weed control at 140 g/ha (test plant species; [13]) of 75 to 84%, a pest or weed control at 140 g/ha (test plant species; [14]) of 0 to 29% and a pest or weed control at 140 g/ha (test plant species; [15]) of 60 to 74%. For the same molecule, the pest or weed control at 140 g/ha (test plant species; [16]) was 0 to 29%, the pest or weed control at 140 g/ha (test plant species; [17]) was 0 to 29% and the pest or weed control at 140 g/ha (test plant species; [18]) was 60 to 74%. For the same molecule, the pest or weed control at 140 g/ha (test plant species; [19]) was 60 to 74%, the pest or weed control at 140 g/ha (test plant species; [20]) was 60 to 74% and the pest or weed control at 140 g/ha (test plant species; [21]) was 0 to 29%. It also gave a pest or weed control at 140 g/ha (test plant species; [22]) of 0 to 29%.
